Experimental data reported in US10695283B2, “Extract of Greyia radlkoferi and use thereof” (UNIVERSITY OF PRETORIA, priority 2012, dated 2020).

How the values were obtained:
tyrosinase = tyrosinase inhibition; type: biochemical; conditions: for tyrosinase 50% inhibitory concentration (IC50) of the individual phenolic compound: compound used in isolation; for individual tyrosinase inhibitory capability: isolated compounds
melanocyte cells = test: inhibition of melanin release by melanocyte cells in vitro; type: cell-based
Text: The inhibition of hyper-pigmentation is not restricted to inhibition at the enzyme level but melanin inhibition can also be achieved in vitro by the inhibition of melanin release by melanocyte cells.

Structure (SMILES)	tyrosinase 50% inhibitory concentration (IC50) of the individual phenolic compound (tyrosinase)	tyrosinase 50% inhibitory concentration (IC50) (tyrosinase; L-tyrosine and DOPA used as substrates)	individual tyrosinase inhibitory capability (tyrosinase)	melanin reduction (melanocyte cells; at 3.125 μg/ml)	melanin inhibited (melanocyte cells; at concentrations as low as 3.1 μg/ml)
O=C1C[C@@H](c2ccccc2)Oc2cc(O)cc(O)c21 [Compound C1, 5,7-dihidroxyflavone[(2S)-pinocembrin]]			exhibit individual tyrosinase inhibitory capabilities		
O=c1c(-c2ccc(O)cc2)coc2cc(O)cc(O)c12 [Compound C5, 4′,5′7-trihydroxyisoflavone]			exhibit individual tyrosinase inhibitory capabilities		
O=C(/C=C/c1ccc(O)cc1)c1ccc(O)cc1O [isoliquirtigenin, reference compound]		896.88 µg/mL			
O=c1c(O)c(-c2ccccc2)oc2cc(O)cc(O)c12 [Compound C4, 3,5,7-trihydroxyflavone]	2.23 µg/mL		exhibit individual tyrosinase inhibitory capabilities		more than 50%

Second part, led by results:

tyrosinase 50% inhibitory concentration (IC50) of the individual phenolic compound (tyrosinase)	tyrosinase 50% inhibitory concentration (IC50) (tyrosinase; L-tyrosine and DOPA used as substrates)	Structure (SMILES)	individual tyrosinase inhibitory capability (tyrosinase)	melanin reduction (melanocyte cells; at 3.125 μg/ml)	melanin inhibited (melanocyte cells; at concentrations as low as 3.1 μg/ml)
17.86 µg/mL		O=C(CCc1ccccc1)c1c(O)cc(O)cc1O [Compound C3, 2′,4′,6′-trihydroxyhydrochalcone]	exhibit individual tyrosinase inhibitory capabilities		
21.42 µg/mL		COc1cc(O)c(C(=O)CCc2ccccc2)c(O)c1 [Compound C2, 2′,6′-dihydroxy-4′-methoxydihydrochalcone]	exhibit individual tyrosinase inhibitory capabilities	20%	
